Our source for the IC50 values is patent US20230339851A1, “CXCR6 SULFONAMIDE COMPOUNDS” (CHEMOCENTRYX, INC., priority 2022, published 2023).

For this test, the target named is T1, human CXCR6 (Homo sapiens, UniProt O00574).
T1 construct: expressed in transfected cells
T1 sequence (O00574 whole entry): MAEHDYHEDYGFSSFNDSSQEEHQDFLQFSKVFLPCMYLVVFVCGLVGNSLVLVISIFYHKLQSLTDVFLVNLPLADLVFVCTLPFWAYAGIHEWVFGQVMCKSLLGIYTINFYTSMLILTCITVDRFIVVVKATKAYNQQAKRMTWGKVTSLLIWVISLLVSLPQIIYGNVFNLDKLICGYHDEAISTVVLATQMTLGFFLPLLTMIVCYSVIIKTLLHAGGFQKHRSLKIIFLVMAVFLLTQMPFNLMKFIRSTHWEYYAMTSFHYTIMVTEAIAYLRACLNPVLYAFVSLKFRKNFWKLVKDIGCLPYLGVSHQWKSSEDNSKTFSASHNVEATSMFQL
As to the kind of experiment: Radioligand Binding Assay (125I-CXCL16 displacement). As to conditions: L1.2 cells stably transfected with human CXCR6 cDNA, 0.1 nM 125I-CXCL16, 4° C., three-hour incubation; read-out: Potency (IC50). The gist of the method:
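L1.2 cells stably expressing human CXCR6 incubated 3 h at 4 °C in HBSS/0.1% BSA with 0.1 nM 125I-CXCL16 and graded compound concentrations. Bound radioactivity collected by filtration and counted; IC50 from 3-parameter nonlinear regression.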
As to `CCOc1cc(NC(=O)C(O)c2ccc(C(F)(F)F)cc2)ccc1S(=O)(=O)Nc1cccc(OC(F)(F)F)c1` (stereo not drawn) [Example 1.278], the IC50 is 200 to 750 nM. Next, `CCOc1cc(NC(=O)[C@@H](O)c2ccccc2)ccc1S(=O)(=O)Nc1ccc(C)c(OC(F)(F)F)c1` [Example 1.279]: at most 200 nM; `CCOc1cc(NC(=O)[C@@H]2C[C@@H](O)[C@@H](O)C2)ccc1S(=O)(=O)Nc1cccc(OC(F)(F)F)c1` [Example 1.280]: 2000 to 20000 nM; `CCOc1cc(NC(=O)[C@H](O)C2CCCC2)ccc1S(=O)(=O)Nc1cccc(OC(F)(F)F)c1` [Example 1.281]: at most 200 nM. Next, `CCOc1cc(NC(=O)C2COCCO2)ccc1S(=O)(=O)Nc1cccc(OC(F)(F)F)c1` (stereo not drawn) [Example 1.282]: 750 to 2000 nM; `COc1cc(NC(=O)[C@@H](CO)C2CC2)ccc1S(=O)(=O)Nc1cccc(OC(F)(F)F)c1` [Example 1.283]: at most 200 nM; `Cc1cc(NC(=O)c2c(Br)cnn2C)ccc1S(=O)(=O)Nc1cccc(C(F)(F)F)c1` [Example 1.284]: 2000 to 20000 nM. Next, `CCOc1cc(NC(=O)C2CCC(O)CC2)ccc1S(=O)(=O)Nc1cccc(OC(F)(F)F)c1` (stereo not drawn) [Example 1.285]: 2000 to 20000 nM; `C=Cc1cc(NS(=O)(=O)c2ccc(NC(=O)[C@@H](O)C(C)C)cc2OCC)ccc1C` [Example 1.286]: at most 200 nM.

For the compound `CCOc1cc(NC(=O)[C@H](CO)c2ccccc2)ccc1S(=O)(=O)Nc1cccc(OC(F)(F)F)c1` [Example 1.287], the concentration for half-maximal inhibition (IC50) was in the range of 200 to 750 nM. As to `CCOc1cc(NC(=O)[C@@H](CO)C(C)C)ccc1S(=O)(=O)Nc1ccc(F)c(OC(F)(F)F)c1` [Example 1.288], the half-inhibitory concentration (IC50) was at most 200 nM.

Turning to `Cn1nccc1C(=O)Nc1ccc(S(=O)(=O)Nc2cccc(OC(F)(F)F)c2)c(C#N)c1` [Example 1.289], the half-maximal inhibitory concentration (IC50) fell in the range of 750 to 2000 nM. Consider `CCOc1cc(NC(=O)[C@@H](O)C(C)C)ccc1S(=O)(=O)Nc1cccc(OC)c1C` [Example 1.290], for which the 50% inhibitory concentration (IC50) lay in the range of 750 to 2000 nM. As for `CCOC(=O)[C@H]1CC(C)=C(C)C[C@@H]1C(=O)Nc1ccc(S(=O)(=O)Nc2cccc(OC(F)(F)F)c2)c(OCC)c1` [Example 1.291], the figure is 200 to 750 nM; as for `Cc1cc(NC(=O)c2ccccc2Cl)ccc1S(=O)(=O)Nc1cccc(C(F)(F)F)c1` [Example 1.292], 200 to 750 nM. Next, `Cc1ccccc1C(=O)Nc1ccc(S(=O)(=O)Nc2cccc(C(F)(F)F)c2)c(C)c1` [Example 1.293]: 200 to 750 nM; `COc1ccccc1C(=O)Nc1ccc(S(=O)(=O)Nc2cccc(C(F)(F)F)c2)c(OC)c1` [Example 1.294]: 2000 to 20000 nM.

For `CCOc1cc(NC(=O)[C@@H](CO)c2ccccc2)ccc1S(=O)(=O)Nc1ccc(C(F)(F)F)cc1` [Example 1.295], the IC50 lay within 750 to 2000 nM.

Take `CCN[C@H](C(=O)Nc1ccc(S(=O)(=O)Nc2ccc(C)c(OC(F)(F)F)c2)c(OCC)c1)C(C)C` [Example 1.296]: the half-inhibitory concentration (IC50) is at most 200 nM.

On to `CCOc1cc(NC(=O)[C@@H](CO)C(C)CC)ccc1S(=O)(=O)Nc1cccc(OC(F)(F)F)c1` (stereo partly drawn) [Example 1.297], for which the IC50 was at most 200 nM. Next, `CCOc1cc(NC(=O)[C@@H](NC=O)C(C)C)ccc1S(=O)(=O)Nc1cccc(OC(F)(F)F)c1` [Example 1.298]: at most 200 nM; `Cc1cc(NC(=O)c2cccc(Cl)c2)ccc1S(=O)(=O)Nc1cccc(C(F)(F)F)c1` [Example 1.299]: 200 to 750 nM. Next, `CCOc1cc(NC(=O)C2CCCCN2)ccc1S(=O)(=O)Nc1cccc(OC(F)(F)F)c1` (stereo not drawn) [Example 1.300]: 200 to 750 nM; `Cc1cc(NC(=O)c2cocn2)ccc1S(=O)(=O)Nc1cccc(C(F)(F)F)c1` [Example 1.301]: 2000 to 20000 nM; `CCOc1cc(NC(=O)C2(COC)CC2)ccc1S(=O)(=O)Nc1cccc(OC(F)(F)F)c1` [Example 1.302]: 750 to 2000 nM. As for `CCOc1cc(NC(=O)C2CCC=C[C@@H]2O)ccc1S(=O)(=O)Nc1cccc(OC(F)(F)F)c1` (stereo partly drawn) [Example 1.303], the figure is at most 200 nM; as for `COc1cc(NC(=O)C2CCOCC2)ccc1S(=O)(=O)Nc1cccc(C(F)(F)F)c1` [Example 1.304], 750 to 2000 nM; as for `CCOc1cc(NC(=O)[C@H]2[C@H](C)COC[C@@H]2C)ccc1S(=O)(=O)Nc1cccc(OC(F)(F)F)c1` [Example 1.305], at most 200 nM. For `Cc1cc(NC(=O)c2cccnc2C)ccc1S(=O)(=O)Nc1cccc(C(F)(F)F)c1` [Example 1.306], the IC50 was in the range of 750 to 2000 nM. As for `CCOc1cc(NC(=O)[C@H]2CCCC[C@@H]2OC)ccc1S(=O)(=O)Nc1cccc(OC(F)(F)F)c1` [Example 1.307], the figure is 200 to 750 nM; as for `CCOc1cc(NC(=O)[C@@H](O)C(C)C)ccc1S(=O)(=O)Nc1cccc(C2CC2)c1` [Example 1.308], at most 200 nM. Next, `CCOc1cc(NC(=O)C(CO)CC2CCOCC2)ccc1S(=O)(=O)Nc1cccc(OC(F)(F)F)c1` (stereo not drawn) [Example 1.309]: 200 to 750 nM; `CCCc1cc(NC(=O)[C@@H](CO)C(C)C)ccc1S(=O)(=O)Nc1cccc(OC(F)(F)F)c1` [Example 1.311]: at most 200 nM; `CCOc1cc(NC(=O)[C@@H](O)C(C)C)ccc1S(=O)(=O)Nc1cccc(C(F)(F)F)c1C` [Example 1.312]: 2000 to 20000 nM. Next, `CCOc1cc(NC(=O)[C@@H](NC(C)=O)c2ccccc2)ccc1S(=O)(=O)Nc1cccc(OC(F)(F)F)c1` [Example 1.313]: at most 200 nM. As to `CCOc1cc(NC(=O)c2ccc(N(C)C)cc2)ccc1S(=O)(=O)Nc1cccc(OC(F)(F)F)c1` [Example 1.315], the IC50 is 750 to 2000 nM. Next, `CCOc1cc(NC(=O)C2CCN(C)C(=O)C2)ccc1S(=O)(=O)Nc1cccc(OC(F)(F)F)c1` (stereo not drawn) [Example 1.316]: 750 to 2000 nM; `CC(C)Oc1cc(NC(=O)c2ccnn2C)ccc1S(=O)(=O)Nc1cccc(C(F)(F)F)c1` [Example 1.317]: 2000 to 20000 nM. Next, `CCOc1cc(NC(=O)C2(O)CC2)ccc1S(=O)(=O)Nc1cccc(OC(F)(F)F)c1` [Example 1.318]: 750 to 2000 nM.

For `CCOc1cc(NC(=O)C2CC=CC2)ccc1S(=O)(=O)Nc1cccc(OC(F)(F)F)c1` [Example 1.319], the IC50 lay in the range of 750 to 2000 nM. Consider `CCOc1cc(NC(=O)[C@@H](O)C(C)C)ccc1S(=O)(=O)Nc1cccc(OC(F)(F)F)c1F` [Example 1.320], for which the IC50 lay within 200 to 750 nM. Next, `CC(=O)Nc1ccc(S(=O)(=O)Nc2cccc(C(F)(F)F)c2)c(C)c1` [Example 1.321]: 2000 to 20000 nM; `Cc1cc(NC(=O)[C@@H](O)C(C)C)ccc1S(=O)(=O)Nc1cccc(OC(F)(F)F)c1` [Example 1.322]: at most 200 nM; `COc1cc(NC(=O)[C@H]2CCCNC2)ccc1S(=O)(=O)Nc1cccc(C(F)(F)F)c1` [Example 1.323]: 2000 to 20000 nM.

In the case of `CCOc1cc(NC(=O)[C@@H](NS(C)(=O)=O)C(C)C)ccc1S(=O)(=O)Nc1cccc(OC(F)(F)F)c1` [Example 1.324], the IC50 was at most 200 nM. Next, `Cc1cc(NC(=O)c2c(C)noc2C)ccc1S(=O)(=O)Nc1cccc(C(F)(F)F)c1` [Example 1.325]: 2000 to 20000 nM; `CCOc1cc(NC(=O)c2ccc(N)nc2)ccc1S(=O)(=O)Nc1cccc(OC(F)(F)F)c1` [Example 1.326]: at most 200 nM; `CCOc1cc(NC(=O)C(O)c2cccc(C(F)(F)F)c2)ccc1S(=O)(=O)Nc1cccc(OC(F)(F)F)c1` (stereo not drawn) [Example 1.327]: at most 200 nM.
